pKi: −log10 of the molar value.
Legend:
[1] = target: Tyrosine-protein kinase SYK (Homo sapiens) (UniProt P43405); conditions: Compound concentration 1000.0 nM
[2] = target: Muscarinic acetylcholine receptor M4 (Homo sapiens) (UniProt P08173); conditions: Compound concentration 10.0 uM
[3] = target: Mitogen-activated protein kinase kinase kinase 19 (Homo sapiens) (UniProt Q56UN5); conditions: Compound concentration 1000.0 nM
[4] = target: Ribosomal protein S6 kinase alpha-5 (Homo sapiens) (UniProt O75582); conditions: Compound concentration 1000.0 nM
[5] = target: Serine/threonine-protein kinase 38-like (Homo sapiens) (UniProt Q9Y2H1); conditions: Compound concentration 1000.0 nM
[6] = target: Cyclin-dependent kinase 17 (Homo sapiens) (UniProt Q00537); conditions: Compound concentration 1000.0 nM
[7] = target: Casein kinase I isoform alpha (Homo sapiens) (UniProt P48729); conditions: Compound concentration 1000.0 nM
Chain of Casein kinase I isoform alpha (Homo sapiens) (P48729 2-337 limits assumed): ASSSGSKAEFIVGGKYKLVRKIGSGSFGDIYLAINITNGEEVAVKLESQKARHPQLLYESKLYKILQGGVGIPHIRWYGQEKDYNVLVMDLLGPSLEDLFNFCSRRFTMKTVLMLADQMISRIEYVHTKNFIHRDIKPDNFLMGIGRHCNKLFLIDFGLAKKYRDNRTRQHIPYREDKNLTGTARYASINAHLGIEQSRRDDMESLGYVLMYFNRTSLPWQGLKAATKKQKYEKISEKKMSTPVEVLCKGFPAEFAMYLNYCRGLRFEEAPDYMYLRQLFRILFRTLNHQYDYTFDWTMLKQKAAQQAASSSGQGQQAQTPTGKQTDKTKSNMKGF

[8] = target: Tyrosine-protein kinase Lck (Homo sapiens) (UniProt P06239); conditions: Compound concentration 1000.0 nM
[9] = target: Cyclin-dependent kinase 18 (Homo sapiens) (UniProt Q07002); conditions: Compound concentration 1000.0 nM
[10] = target: Ribosomal protein S6 kinase alpha-6 (Homo sapiens) (UniProt Q9UK32); conditions: Compound concentration 1000.0 nM
[11] = target: Sigma intracellular receptor 2 (Homo sapiens, UniProt Q5BJF2); conditions: Compound concentration 10.0 uM
Chain of Sigma intracellular receptor 2 (Q5BJF2 whole entry): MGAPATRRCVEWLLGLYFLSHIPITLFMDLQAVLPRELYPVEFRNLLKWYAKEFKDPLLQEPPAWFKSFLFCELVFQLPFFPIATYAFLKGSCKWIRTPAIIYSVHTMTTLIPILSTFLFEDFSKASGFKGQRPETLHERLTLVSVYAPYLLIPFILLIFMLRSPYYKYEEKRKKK

[12] = target: Tyrosine-protein kinase ABL2 (Homo sapiens) (UniProt P42684); conditions: Compound concentration 1000.0 nM
[13] = target: Serine/threonine-protein kinase VRK2 (Homo sapiens) (UniProt Q86Y07); conditions: Compound concentration 1000.0 nM
[14] = target: Transient receptor potential cation channel subfamily M member 6 (Homo sapiens) (UniProt Q9BX84); conditions: Compound concentration 1000.0 nM
[15] = target: RAC-beta serine/threonine-protein kinase (Homo sapiens) (UniProt P31751); conditions: Compound concentration 1000.0 nM
[16] = target: Serine/threonine-protein kinase Nek6 (Homo sapiens) (UniProt Q9HC98); conditions: Compound concentration 1000.0 nM
[17] = target: Serine/threonine-protein kinase PLK1 (Homo sapiens) (UniProt P53350); conditions: Compound concentration 1000.0 nM
[18] = test system: Epidermal growth factor receptor (Homo sapiens), P00533 [G719C]; conditions: Compound concentration 1000.0 nM
[19] = target: Sodium-dependent serotonin transporter (Homo sapiens, UniProt P31645); assay: GPCRScan assay: inhibition of SERT; set-up: radioligand conc. used [nm] 1.5 – 2.0, parental cells stable HEK; conditions: for pKi: read-out: Ki
Chain of Sodium-dependent serotonin transporter (P31645 whole entry): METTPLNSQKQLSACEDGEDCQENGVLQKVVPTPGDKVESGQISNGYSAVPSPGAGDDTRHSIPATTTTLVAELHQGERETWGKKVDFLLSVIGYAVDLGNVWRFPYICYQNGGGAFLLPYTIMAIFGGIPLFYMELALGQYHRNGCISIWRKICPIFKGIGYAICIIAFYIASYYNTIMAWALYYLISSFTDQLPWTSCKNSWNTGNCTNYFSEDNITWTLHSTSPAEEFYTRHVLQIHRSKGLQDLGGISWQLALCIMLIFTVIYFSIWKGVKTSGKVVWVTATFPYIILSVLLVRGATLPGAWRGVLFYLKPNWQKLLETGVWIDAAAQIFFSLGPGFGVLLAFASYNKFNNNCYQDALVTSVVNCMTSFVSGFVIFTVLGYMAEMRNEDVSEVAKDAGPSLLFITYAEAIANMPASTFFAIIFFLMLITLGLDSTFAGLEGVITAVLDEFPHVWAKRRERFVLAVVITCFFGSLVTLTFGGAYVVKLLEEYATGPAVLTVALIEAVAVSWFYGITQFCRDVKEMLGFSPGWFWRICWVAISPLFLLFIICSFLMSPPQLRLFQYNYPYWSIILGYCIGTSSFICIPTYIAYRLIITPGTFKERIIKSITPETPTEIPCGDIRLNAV

[20] = target: Sigma non-opioid intracellular receptor 1 (Homo sapiens) (UniProt Q99720); conditions: Compound concentration 10.0 uM
[21] = target: cGMP-dependent protein kinase 2 (Homo sapiens) (UniProt Q13237); conditions: Compound concentration 1000.0 nM
Chain of cGMP-dependent protein kinase 2 (Homo sapiens) (Q13237 whole entry): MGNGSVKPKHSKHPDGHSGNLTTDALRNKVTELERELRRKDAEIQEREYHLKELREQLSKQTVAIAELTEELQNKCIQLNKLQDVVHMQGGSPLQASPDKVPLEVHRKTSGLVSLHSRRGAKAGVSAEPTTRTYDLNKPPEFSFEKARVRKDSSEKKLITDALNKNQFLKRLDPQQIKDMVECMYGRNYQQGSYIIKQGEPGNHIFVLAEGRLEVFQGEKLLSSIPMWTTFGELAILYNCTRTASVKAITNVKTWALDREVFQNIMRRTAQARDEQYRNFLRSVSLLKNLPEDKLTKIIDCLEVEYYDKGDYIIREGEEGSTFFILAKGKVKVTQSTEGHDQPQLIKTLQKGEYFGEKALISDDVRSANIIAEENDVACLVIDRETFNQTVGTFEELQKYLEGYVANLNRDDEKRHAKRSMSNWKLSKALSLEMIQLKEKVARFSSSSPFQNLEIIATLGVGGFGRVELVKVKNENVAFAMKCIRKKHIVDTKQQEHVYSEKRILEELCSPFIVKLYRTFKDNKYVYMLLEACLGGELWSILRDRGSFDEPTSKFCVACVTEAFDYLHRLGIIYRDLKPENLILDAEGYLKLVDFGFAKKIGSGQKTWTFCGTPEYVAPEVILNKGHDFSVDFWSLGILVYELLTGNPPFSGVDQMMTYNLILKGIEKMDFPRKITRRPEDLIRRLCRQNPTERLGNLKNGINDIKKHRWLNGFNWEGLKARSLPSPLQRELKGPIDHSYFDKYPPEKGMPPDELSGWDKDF

[22] = target: Sodium-dependent noradrenaline transporter (Homo sapiens, UniProt P23975); conditions: Compound concentration 10.0 uM
[23] = target: Dual specificity tyrosine-phosphorylation-regulated kinase 1A (Homo sapiens) (UniProt Q13627); conditions: Compound concentration 1000.0 nM
[24] = target: Serine/threonine-protein kinase Nek10 (Homo sapiens) (UniProt Q6ZWH5); conditions: Compound concentration 1000.0 nM
[25] = target: Kappa-type opioid receptor (Homo sapiens) (UniProt P41145); conditions: Compound concentration 10.0 uM
[26] = target: Mu-type opioid receptor (Homo sapiens) (UniProt P35372); conditions: Compound concentration 10.0 uM
[27] = target: Testis-specific serine/threonine-protein kinase 3 (Homo sapiens) (UniProt Q96PN8); conditions: Compound concentration 1000.0 nM
Chain of Testis-specific serine/threonine-protein kinase 3 (Homo sapiens) (Q96PN8 whole entry): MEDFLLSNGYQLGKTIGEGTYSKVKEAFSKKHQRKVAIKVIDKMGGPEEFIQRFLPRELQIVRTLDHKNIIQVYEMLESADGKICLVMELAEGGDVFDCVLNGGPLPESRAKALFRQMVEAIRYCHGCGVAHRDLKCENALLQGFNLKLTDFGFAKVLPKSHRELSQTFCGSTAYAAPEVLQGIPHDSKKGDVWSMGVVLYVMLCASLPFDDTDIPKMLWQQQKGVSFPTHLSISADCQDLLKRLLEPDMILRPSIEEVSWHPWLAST

[28] = target: Focal adhesion kinase 1 (Homo sapiens) (UniProt Q05397); conditions: Compound concentration 1000.0 nM
[29] = test system: Fibroblast growth factor receptor 3 (Homo sapiens), P22607 [G697C]; conditions: Compound concentration 1000.0 nM
[30] = target: AP2-associated protein kinase 1 (Homo sapiens) (UniProt Q2M2I8); conditions: Compound concentration 1000.0 nM
[31] = target: Ephrin type-B receptor 1 (Homo sapiens) (UniProt P54762); conditions: Compound concentration 1000.0 nM
[32] = target: Glycogen synthase kinase-3 beta (Homo sapiens) (UniProt P49841); conditions: Compound concentration 1000.0 nM
[33] = target: Serine/threonine-protein kinase ICK (Homo sapiens) (UniProt Q9UPZ9); conditions: Compound concentration 1000.0 nM
Chain of Serine/threonine-protein kinase ICK (Homo sapiens) (Q9UPZ9 whole entry): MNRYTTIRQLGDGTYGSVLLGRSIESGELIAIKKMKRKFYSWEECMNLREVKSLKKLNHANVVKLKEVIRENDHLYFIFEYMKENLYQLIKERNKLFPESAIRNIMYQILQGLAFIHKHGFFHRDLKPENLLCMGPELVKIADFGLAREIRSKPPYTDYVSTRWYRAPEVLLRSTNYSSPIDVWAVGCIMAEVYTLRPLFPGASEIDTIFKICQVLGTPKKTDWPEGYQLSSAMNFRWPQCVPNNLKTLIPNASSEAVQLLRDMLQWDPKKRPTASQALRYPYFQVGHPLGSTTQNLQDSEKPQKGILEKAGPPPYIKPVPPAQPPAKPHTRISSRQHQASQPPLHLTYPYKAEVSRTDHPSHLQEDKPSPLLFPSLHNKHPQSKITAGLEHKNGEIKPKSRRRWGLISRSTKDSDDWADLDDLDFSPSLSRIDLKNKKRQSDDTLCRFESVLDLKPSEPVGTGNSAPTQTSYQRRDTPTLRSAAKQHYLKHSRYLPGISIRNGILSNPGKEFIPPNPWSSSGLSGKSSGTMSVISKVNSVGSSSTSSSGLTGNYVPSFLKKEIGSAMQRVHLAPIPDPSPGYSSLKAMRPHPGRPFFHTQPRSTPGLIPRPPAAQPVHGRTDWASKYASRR

[34] = target: Tyrosine-protein kinase ITK/TSK (Homo sapiens) (UniProt Q08881); conditions: Compound concentration 1000.0 nM
[35] = target: Serine/threonine-protein kinase ULK2 (Homo sapiens) (UniProt Q8IYT8); conditions: Compound concentration 1000.0 nM
[36] = target: Mitogen-activated protein kinase kinase kinase 15 (Homo sapiens) (UniProt Q6ZN16); conditions: Compound concentration 1000.0 nM
[37] = target: Ribosomal protein S6 kinase alpha-4 (Homo sapiens) (UniProt O75676); conditions: Compound concentration 1000.0 nM
[38] = target: Inhibitor of nuclear factor kappa-B kinase subunit alpha (Homo sapiens) (UniProt O15111); conditions: Compound concentration 1000.0 nM
[39] = target: Fibroblast growth factor receptor 3 (Homo sapiens) (UniProt P22607); conditions: Compound concentration 1000.0 nM
Chain of Fibroblast growth factor receptor 3 (Homo sapiens) (P22607 23-806 limits assumed): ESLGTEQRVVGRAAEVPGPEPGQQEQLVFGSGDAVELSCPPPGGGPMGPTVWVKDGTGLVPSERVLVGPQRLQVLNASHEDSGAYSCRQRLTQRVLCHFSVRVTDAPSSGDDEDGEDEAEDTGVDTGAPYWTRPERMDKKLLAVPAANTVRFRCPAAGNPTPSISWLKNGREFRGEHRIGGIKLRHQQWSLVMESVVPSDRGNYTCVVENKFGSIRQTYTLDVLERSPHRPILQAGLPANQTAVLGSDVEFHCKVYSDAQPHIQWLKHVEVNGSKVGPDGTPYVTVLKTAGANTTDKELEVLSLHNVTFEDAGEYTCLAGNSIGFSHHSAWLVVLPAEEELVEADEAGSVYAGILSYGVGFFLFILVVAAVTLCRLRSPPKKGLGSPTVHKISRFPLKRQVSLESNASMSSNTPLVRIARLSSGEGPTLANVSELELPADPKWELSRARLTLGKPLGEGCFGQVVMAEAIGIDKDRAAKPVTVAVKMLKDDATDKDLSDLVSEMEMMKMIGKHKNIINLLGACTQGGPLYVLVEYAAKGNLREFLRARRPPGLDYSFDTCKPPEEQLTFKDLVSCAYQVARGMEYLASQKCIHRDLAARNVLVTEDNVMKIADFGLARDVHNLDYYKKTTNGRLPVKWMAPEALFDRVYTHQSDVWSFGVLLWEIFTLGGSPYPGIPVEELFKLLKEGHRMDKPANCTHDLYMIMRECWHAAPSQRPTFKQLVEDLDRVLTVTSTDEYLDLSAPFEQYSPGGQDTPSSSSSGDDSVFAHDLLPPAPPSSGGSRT

[40] = target: Tyrosine-protein kinase Fes/Fps (Homo sapiens) (UniProt P07332); conditions: Compound concentration 1000.0 nM
[41] = target: Tyrosine-protein kinase ABL1 (Homo sapiens) (UniProt P00519); conditions: Compound concentration 1000.0 nM
[42] = target: Mitogen-activated protein kinase kinase kinase 14 (Homo sapiens) (UniProt Q99558); conditions: Compound concentration 1000.0 nM
[43] = test system: Mast/stem cell growth factor receptor Kit (Homo sapiens), P10721 [L576P]; conditions: Compound concentration 1000.0 nM
[44] = target: Insulin receptor (Homo sapiens) (UniProt P06213); conditions: Compound concentration 1000.0 nM
Chain of Insulin receptor (Homo sapiens) (P06213 28-758 limits assumed): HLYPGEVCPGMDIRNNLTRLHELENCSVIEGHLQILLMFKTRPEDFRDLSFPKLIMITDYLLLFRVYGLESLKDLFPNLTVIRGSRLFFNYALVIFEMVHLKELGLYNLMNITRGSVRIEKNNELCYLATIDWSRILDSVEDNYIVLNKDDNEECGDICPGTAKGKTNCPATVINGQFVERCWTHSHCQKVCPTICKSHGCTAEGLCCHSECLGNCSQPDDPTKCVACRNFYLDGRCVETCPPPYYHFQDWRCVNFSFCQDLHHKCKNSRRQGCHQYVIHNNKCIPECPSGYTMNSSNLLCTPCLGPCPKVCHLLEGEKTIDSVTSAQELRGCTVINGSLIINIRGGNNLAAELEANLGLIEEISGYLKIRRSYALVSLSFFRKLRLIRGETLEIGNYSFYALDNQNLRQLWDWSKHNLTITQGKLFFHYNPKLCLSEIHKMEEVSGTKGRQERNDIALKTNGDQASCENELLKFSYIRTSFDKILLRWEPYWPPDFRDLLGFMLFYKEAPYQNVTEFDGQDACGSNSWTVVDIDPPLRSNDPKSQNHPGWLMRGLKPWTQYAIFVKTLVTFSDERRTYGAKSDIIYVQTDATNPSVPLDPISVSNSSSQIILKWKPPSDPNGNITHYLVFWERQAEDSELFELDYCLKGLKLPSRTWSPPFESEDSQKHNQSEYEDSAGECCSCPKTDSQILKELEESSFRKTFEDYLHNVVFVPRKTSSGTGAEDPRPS
Chain of Insulin receptor (Homo sapiens) (P06213 763-1382 limits assumed): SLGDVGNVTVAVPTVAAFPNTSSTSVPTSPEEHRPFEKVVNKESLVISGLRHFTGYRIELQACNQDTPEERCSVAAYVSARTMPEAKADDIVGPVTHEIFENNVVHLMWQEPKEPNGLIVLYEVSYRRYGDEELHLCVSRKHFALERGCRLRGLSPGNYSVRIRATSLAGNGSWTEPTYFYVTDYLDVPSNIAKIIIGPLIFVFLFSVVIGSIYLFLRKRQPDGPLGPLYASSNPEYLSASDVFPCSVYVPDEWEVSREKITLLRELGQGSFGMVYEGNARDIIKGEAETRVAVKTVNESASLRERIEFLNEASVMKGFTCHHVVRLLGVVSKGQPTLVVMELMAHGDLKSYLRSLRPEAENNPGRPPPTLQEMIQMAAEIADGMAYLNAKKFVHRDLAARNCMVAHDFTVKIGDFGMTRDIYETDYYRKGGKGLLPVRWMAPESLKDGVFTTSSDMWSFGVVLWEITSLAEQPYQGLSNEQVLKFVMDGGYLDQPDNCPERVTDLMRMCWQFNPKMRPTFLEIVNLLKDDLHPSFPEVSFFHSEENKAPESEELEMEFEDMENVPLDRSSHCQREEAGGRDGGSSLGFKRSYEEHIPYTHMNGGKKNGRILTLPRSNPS

[45] = target: Serine/threonine-protein kinase 32B (Homo sapiens) (UniProt Q9NY57); conditions: Compound concentration 1000.0 nM

COc1cc(-c2cn([C@H]3CCc4c(F)cccc4N(CC(F)(F)F)C3=O)nn2)ccc1-n1cnc(C)c1
inactive: residual activity [1] 100% | inhibition [2] 26.2% | residual activity [3] 100% | residual activity [4] 73% | residual activity [5] 78% | residual activity [6] 84% | residual activity [7] 100% | residual activity [8] 100% | residual activity [9] 100% | residual activity [10] 82% | inhibition [11] 50% | residual activity [12] 100% | residual activity [13] 100% | residual activity [14] 100% | residual activity [15] 93% | residual activity [16] 100% | residual activity [17] 100% | residual activity [18] 94% | inhibition [20] 26.6% | residual activity [21] 100% | residual activity [23] 84% | residual activity [24] 100% | inhibition [25] 7.19% | inhibition [26] 30.2% | residual activity [27] 97% | residual activity [28] 100% | residual activity [29] 100% | residual activity [30] 100% | residual activity [31] 100% | residual activity [32] 100% | residual activity [33] 65% | residual activity [34] 100% | residual activity [35] 100% | residual activity [36] 100% | residual activity [37] 100% | residual activity [38] 100% | residual activity [39] 100% | residual activity [40] 100% | residual activity [41] 100% | residual activity [42] 86% | residual activity [43] 100% | residual activity [44] 90% | residual activity [45] 100%
active: inhibition [22] 87.1%
7.62: pKi [19]

COc1cc(-c2cn([C@H]3CCc4ccccc4N(CC(F)(F)F)C3=O)nn2)ccc1-n1ccc(C)n1
380 nM: Ki ([19]; read-out: pKi (converted))
inactive: residual activity [1] 100% | inhibition [2] 6.94% | residual activity [3] 95% | residual activity [4] 71% | residual activity [5] 75% | residual activity [6] 100% | residual activity [7] 98% | residual activity [8] 100% | residual activity [9] 100% | residual activity [10] 81% | residual activity [12] 100% | residual activity [13] 100% | residual activity [14] 100% | residual activity [15] 93% | residual activity [16] 100% | residual activity [17] 84% | residual activity [18] 100% | inhibition [20] 23.2% | residual activity [21] 85% | inhibition [22] 49.4% | residual activity [23] 83% | residual activity [24] 81% | inhibition [25] 13.6% | inhibition [26] 5.55% | residual activity [27] 100% | residual activity [28] 100% | residual activity [29] 90% | residual activity [30] 100% | residual activity [31] 100% | residual activity [32] 85% | residual activity [33] 63% | residual activity [34] 100% | residual activity [35] 88% | residual activity [36] 84% | residual activity [37] 97% | residual activity [38] 98% | residual activity [39] 100% | residual activity [40] 100% | residual activity [41] 75% | residual activity [42] 69% | residual activity [43] 62% | residual activity [44] 69% | residual activity [45] 85%
6.41: pKi [19]
active: inhibition [11] 72%
